The data set deals with PTEC-TERT1 cells. Briefly: EGF assay, supernatant of PTEC-TERT1 cells. The conditions noted are these: for Toxicity grade: from EGF, assay window saline vs toxic reference compound 4-1.
Setting [1] is: PTEC-TERT1, 6 days, 10 ng/ml EGF in medium, 25 μM.
[2] abbreviates: PTEC-TERT1, 6 days, 10 ng/ml EGF in medium, 100 μM.
[3] abbreviates: PTEC-TERT1, 6 days, No EGF in Medium, 25 μM.
The mark [4] stands for this setting: PTEC-TERT1, 6 days, No EGF in Medium, 100 μM.
Where [5] appears, read: PTEC-TERT1, Day 3, 3 μM (Table 2).
The mark [6] stands for this setting: PTEC-TERT1, Day 3, 10 μM (Table 2).
The mark [7] stands for this setting: PTEC-TERT1, Day 3, 11 μM (Table 3).
The mark [8] stands for this setting: PTEC-TERT1, Day 3, 30 μM (Table 2).
Where [9] appears, read: PTEC-TERT1, Day 3, 33 μM (Table 3).
Where [10] appears, read: PTEC-TERT1, Day 3, 100 μM (Table 2).
[11] abbreviates: PTEC-TERT1, Day 3, 100 μM (Table 3).
[12] abbreviates: PTEC-TERT1, Day 6, 3 μM (Table 2).
Where [13] appears, read: PTEC-TERT1, Day 6, 10 μM (Table 2).
Setting [14] is: PTEC-TERT1, Day 6, 30 μM (Table 2).
Where [15] appears, read: PTEC-TERT1, Day 6, 100 μM (Table 2).
Where [16] appears, read: PTEC-TERT1, Day 7, 11 μM (Table 3).
The mark [17] stands for this setting: PTEC-TERT1, Day 7, 33 μM (Table 3).
Where [18] appears, read: PTEC-TERT1, Day 7, 100 μM (Table 3).
Where [19] appears, read: PTEC-TERT1, Day 10, 11 μM (Table 3).
[20] abbreviates: PTEC-TERT1, Day 10, 33 μM (Table 3).
The mark [21] stands for this setting: PTEC-TERT1, Day 10, 100 μM (Table 3).

In patent US11105794B2, “In vitro nephrotoxicity screening assay” (Hoffmann-La Roche Inc., priority 2016, dated 2021) one finds EGF and Toxicity grade data, which are given here for two substances.

l = locked nucleic acid (LNA); d = 2'-deoxy (DNA)

Procedure: Prior to treatment with oligonucleotides the PTEC-TERT1 were seeded into collagen I-coated 96-well plates (Corning, 356407) at a density of 40 000 and 20 000 cells/well respectively in PTEC medium and grown until confluence.
Oligonucleotides were dissolved in PBS and added to the cell culture at the given concentration, such as 10, 30 or 100 μM. The total volume of each well was 100 μl. PBS served as vehicle control.
When extra cellular markers, like EGF and KIM-1, were analyzed following the oligonucleotide treatment the medium was collected and stored at −20° C. until further analysis. […] The collected medium was stored at −20° C.
For analysis of human EGF, cell supernatants were thawed on ice, diluted 1:2 and 1:10 in sample dilution buffer (BioRad catalog # M60-009RDPD) and analyzed by Luminex®-based ELISA using human EGF beads (Bio-Plex Pro™ Human Cancer Biomarker Panel 2 EGF Set#171BC603M), or followed by analysis using the Bio-Plex® 200 Systems (BioRad) according to the manufacturer's instructions. Data are reported as mean concentrations and standard deviations of triplicate wells.

For “GCtgtgtgagcttGG (antisense GCTGTGTGAGCTTGG; sugars from the 5' end l2 d11 l2, backbone and methylation of C not given here) [Compound 4-1]”, the EGF stood at 731.7 pg/mL under setting [1]; 1957.8 pg/mL under setting [2]; 2622 % saline (PTEC-TERT1, 6 days, 10 μM oligonucleotide (Table 7)); 7311 % saline (PTEC-TERT1, 6 days, 30 μM oligonucleotide (Table 7)); 5.4 pg/mL under setting [3]; 5.3 pg/mL under setting [4]. For the same substance, the EGF by setting is: under setting [5], 71 % saline; under setting [6], 116 % saline; under setting [7], 225 % saline; under setting [8], 302 % saline; under setting [9], 368 % saline; under setting [10], 1572 % saline. Besides, the EGF under setting [11] was 484 % saline; the EGF under setting [12] came to 37 % saline; the EGF under setting [13] came to 222 % saline; the EGF under setting [14] is recorded as 8398 % saline; the EGF under setting [15] is given as 8899 % saline; the EGF under setting [16] came out at 637 % saline. Also, the EGF by setting is: under setting [17], 983 % saline; under setting [18], 983 % saline; under setting [19], 1177 % saline; under setting [20], 1865 % saline; under setting [21], 1792 % saline. The substance further registered a Toxicity grade (PTEC-TERT1, 6 days, 10 μM) of 100 and a Toxicity grade (PTEC-TERT1, 6 days, 30 μM) of 100.

“TGCtacaaaacCCA (antisense TGCTACAAAACCCA; sugars from the 5' end l3 d8 l3, backbone and methylation of C not given here) [Compound 3-1]”: the EGF turned out to be 245.0 pg/mL under setting [1]; 341.8 pg/mL under setting [2]; 6.3 pg/mL under setting [3]; 12.2 pg/mL under setting [4]; 70 % saline under setting [5]; 75 % saline under setting [6]. For the same substance, the EGF is on record as 151 % saline under setting [7]; 70 % saline under setting [8]; 213 % saline under setting [9]; 128 % saline under setting [10]; 207 % saline under setting [11]; 124 % saline under setting [12]. Also, the EGF is, setting by setting: under setting [13], 137 % saline; under setting [14], 231 % saline; under setting [15], 2413 % saline; under setting [16], 168 % saline; under setting [17], 287 % saline; under setting [18], 493 % saline. The EGF is 41 % saline under setting [19], 138 % saline under setting [20] and 227 % saline under setting [21].
